Measured values: patent US6759538B2, “Substituted diphenyl heterocycles useful for treating HCV infection” (priority 2001, dated 2004)

Columns and labels:
[1] = biological target: HCV replicon; experiment: HCV replicon assay (luciferase); assay type: cell-based, Hepatitis C virus (HCV); conditions: 5-2 Luc replicon cells, 24 hours with compound, luciferase emission; first symbol of Replicon/Western
[2] = tested on: HCV nonstructural protein NS5A; experiment: Quantitative Western blot assay; assay type: cell-based, Hepatitis C virus (HCV); conditions: 9-13 replicon cells, 48 hours with compound, second symbol of Replicon/Western
Experimental: Alternatively, the inhibitory activity of the compounds can be confirmed using a quantitative Western immunoblot assay utilizing antibodies specific for HCV non-structural proteins, such as NS3, NS4A NS5A and NS5B. In one embodiment of this assay, replicon cells are treated with varying concentrations of test compound to determine the concentration of test compound that yields a 50% reduction in the amount of a non-structural protein produced as compared to a control sample (IC50). A single non-structural protein may be quantified or multiple non-structural proteins may be quantified. Antibodies suitable for carrying out such immunoblot assays are available commercially (e.g., from BIODESIGN International, Saco, Me.).
Certain exemplary compounds of the invention were also tested for their ability to inhibit HCV replication using a quantitative Western blot analysis with antibodies specific for the HCV nonstructural protein NS5A. Actively dividing 9-13 replicon cells were seeded into 6-well plates at a density of 1×10^5 cells/well in a volume of 2 ml/well and incubated at 37° C. and 5% CO2 for 24 hours. Various concentrations of test compounds (in a volume of 10 ul) were added to the wells and the cells incubated for another 48 hours. Protein samples were prepared from the cultured cells, resolved on a SDS-PAGE gel and transferred to a nitrocellulose membrane. The membrane was blocked with 5% non-fat milk in PBS for 1 hour at room temperature. Primary antibody (anti NS5A antibody; BIODESIGN International, Saco, Me.) incubation was performed for 1 hour at room temperature, after which the membrane was washed 3 times (for 15 min per time) with PBST (PBS plus 0.1% Tween 20). Horseradish peroxidase conjugated secondary antibody incubation was performed for 1 hour at room temperature and the membrane was washed 3 times (for 15 min per time) with PBST. The membrane was then soaked in substrate solution (Pierce) and exposed to a film or quantified using an imager. In this assay, the amount of test compound that yielded a 50% reduction in the amount of NS5A protein translated as compared to a control sample (IC50) was determined.

[3] = tested on: 5-2 Luc cells, 9-13 cells or Huh-7 cells; experiment: Cytotoxicity assay (Cell Titer Glo); conditions: read-out: IC50 cytotoxicity (number of viable cells), liver cells including an HCV replicon, 24 hr
Experimental: In the assay, cells were seeded onto 96-well plates (approx. 7500 cells/well in a volume of 90 μl) and grown for 24 hr at 37° C. On day 2, various concentrations of test compound (in a volume of 10 μl) were added to the wells and the cells were grown for an additional 24 hr at 37° C. On day 3, an ATP-dependent R-Luciferase assay (Cell Titer Glo assay) was performed to determine the number of viable cells.

Molecule | IC50 [1] | IC50 [2] | IC50 [3]
2,2-Dichloro-N-[3-[3-[2-(N-morpholino)-6-trifluoromethylphenyl)-5-isoxazolyl]phenyl] Acetamide [Compound 37] | ≤ 10 µM | ≤ 10 µM | 
2,2-Dichloro-N-[3-[3-[2-fluoro-(6-N-morpholinosulfamoyl)phenyl]-5-isoxazolyl]-phenyl] Acetamide [Compound 21] | ≤ 10 µM | ≤ 10 µM | 
O=C(Nc1cc(-c2cc(-c3c(Cl)cccc3Cl)no2)ccc1F)C(Cl)Cl [Compound 1, 2,2-Dichloro-N-[3-[3-(2,6-dichlorophenyl)-5-isoxazolyl]-6-fluorophenyl] Acetamide] | ≤ 10 µM | ≤ 10 µM | 
O=C(Nc1cccc(-c2cc(-c3cccc(Cl)c3Cl)no2)c1)C(Cl)Cl [Compound 3, 2,2-Dichloro-N-[3-[3-(2,3-dichlorophenyl)-5-isoxazolyl]phenyl] Acetamide] | > 10 µM | ≤ 10 µM | 
O=C(Nc1cccc(-c2cc(-c3c(Cl)cccc3Cl)on2)c1)C(Cl)Cl [Compound 5, 2,2-Dichloro-N-[3-[5-(2,6-dichlorophenyl)-3-isoxazolyl]phenyl] Acetamide] | ≤ 10 µM | ≤ 10 µM | 
O=C(Nc1cccc(-c2cc(-c3c(Cl)cccc3N3CCOCC3)no2)c1)C(Cl)Cl [Compound 7, 2,2-Dichloro-N-[3-[3-[2-chloro-6-(N-morpholino)phenyl]-5-isoxazolyl]phenyl] Acetamide] | ≤ 10 µM | ≤ 10 µM | 
CSc1cccc(F)c1-c1cc(-c2cccc(NC(=O)C(Cl)Cl)c2)on1 [Compound 11, 2,2-Dichloro-N-[3-[3-(2-fluoro-6-thiomethylphenyl)-5-isoxazolyl]phenyl] Acetamide] | ≤ 10 µM | ≤ 10 µM | 
O=C(Nc1ccc(F)c(-c2cc(-c3c(Cl)cccc3Cl)no2)c1)C(Cl)Cl [Compound 13, 2,2-Dichloro-N-[3-[3-(2,6-dichlorophenyl)-5-isoxazolyl]-4-fluorophenyl] Acetamide] | ≤ 10 µM | ≤ 10 µM | 
Cc1ccc(F)c(-c2cc(-c3cccc(NC(=O)C(Cl)Cl)c3)on2)c1Cl [Compound 15, 2,2-Dichloro-N-[3-[3-(2-chloro-6-fluoro-3-methylphenyl)-5-isoxazolyl]phenyl] Acetamide] | ≤ 10 µM | ≤ 10 µM | 
O=C(Nc1cccc(-c2cc(-c3c(F)cccc3Cl)no2)c1)C(Cl)Cl [Compound 27, 2,2-Dichloro-N-[3-[3-(2-chloro-6-fluorophenyl)-5-isoxazolyl]phenyl] Acetamide] | ≤ 10 µM | ≤ 10 µM | 
Cc1cc(C)c(-c2cc(-c3cccc(NC(=O)C(Cl)Cl)c3)on2)c(C)c1 [Compound 69, 2,2-Dichloro-N-[3-[3-(2,4,6-trimethylphenyl)-5-isoxazolyl]phenyl] Acetamide] | ≤ 10 µM |  | 3 µM
O=C(Nc1cccc(-c2cc(-c3c(Cl)cc(OCCN4CCOCC4)cc3Cl)no2)c1)C(Cl)Cl [Compound 75, 2,2-Dichloro-N-[3-[3-[2,6-dichloro-4-(N-morpholinoethyleneoxy)phenyl]-5-isoxazolyl]-phenyl] Acetamide] | > 10 µM | ≤ 10 µM | 
O=C(CI)Nc1cccc(-c2cc(-c3c(Cl)cccc3Cl)no2)c1 [Compound 101, 2-Iodo-N-[3-[3-(2,6-dichlorophenyl)-5-isoxazolyl]phenyl] Acetamide] | ≤ 10 µM | > 10 µM | 
COC(=O)c1ccc(Cl)c(-c2cc(-c3cccc(NC(=O)C(Cl)Cl)c3)on2)c1Cl [Compound 135, 2,2-Dichloro-N-[3-[3-(3-carbomethoxy-2,6-dichlorophenyl)-5-isoxazolyl]phenyl] Acetamide] | > 10 µM | > 10 µM | 
Cc1cccc(-c2cc(-c3cccc(NC(=O)C(Cl)Cl)c3)on2)c1C [Compound 163, 2,2-Dichloro-N-[3-[3-(2,3-dimethylphenyl)-5-isoxazolyl]phenyl] Acetamide] | > 10 µM | > 10 µM | 
